Assay results taken from US20150198584A1, “IDENTIFICATION OF […] STATES” ([…] AG, priority 2014, published 2015).
Entries after “also recorded” stand apart in the source; their conditions may differ.

Key:
HL-60 cell line = assay: Cell physiology assay plate 1a (MBBR, CALCEIN AM, MITOSOX RED, SYTOXRED, light scatter) by flow cytometry; type: cell-based, human
Procedure: (§1) Cells were deposited into 384 well plates (1×10^6 cells in 40 μl tissue culture media) and serial dilutions of test compounds (or vehicle in the case of controls) were deposited in individual wells using standard robotic techniques. Compound deposition and dilution was performed by BIOMEK FX (5 or 10 step dilutions from 100 to 0.005 μM). Dilutions were prepared from stock solutions of compounds dissolved initially in 100% DMSO. Final volume deposited into each well is 2 μl of each compound dilution (compounds are in a final concentration of 1% DMSO). After incubation in a tissue culture incubator (5% CO2 at 37° C.) for varying periods of time (typically 4 hours), plates were centrifuged at room temperature, followed by removal of 20 μl supernatant fluid, After vibration of the plate to re-suspend cells, a dye mix (Plate in Monobromobimane, CALCEIN AM, MITOSOX™ and SYTOSOX™ RED; plate 1b VYBRANVIOLET™ Live Cell Cycle dye, JC-9, and SYTOSOX™ RED) was added in a total volume of 20 μl, followed by an additional mixing step.
(§2) Data was acquired using a CYAN™ flow cytometer, with the […]™ software used to compile files for each well on an individual plate using an FCS format. Data for each plate was subsequently analyzed for several quality assurance parameters (total number of events per well, numbers of events associated with morphologically normal events, number of dead cells), as described below.
Flow cytometric analyses of intrinsic cell properties (forward light scatter and light scattered orthogonal to the laser beam) and fluorescence signals derived from the dyes listed in Table 1 was carried out for plates 1a and 1b.
MITOSOX™ RED is a compound that can diffuse into viable cells and reacts with superoxide anion species, particularly products of mitochondrial respiration; conditions such as cell stress can cause mitochondria to respond (sometimes rapidly) by increasing respiration and/or release superoxide anions; and
(3) SYTOXRED™ to measure cell viability (loss of nuclear membrane integrity). SYTOXRED™ is a high-affinity DNA stain that can only pass through the cytoplasmic and nuclear membranes of cells which have lost the integrity of both membranes; thus, brightly fluorescent cells are dead.

[1] = test system: human peripheral blood monocytes; assay: Kinetics of signal transduction responses to LPS in whole blood monocytes, flow cytometry of fixed and permeabilized cells; type: cell-based; settings: LPS in the presence of the inhibitor, compared to LPS alone
K562 cells = assay: Cell cycle measured by DNA content in K562 cells; type: cell-based, human; settings: 30 min exposure, listed as imatinib
Procedure: Cells were deposited onto dilutions of test compounds deposited into individual wells of 96 well plates, as indicated above. […] Following 15 min incubation (at 37° C.?), cells were pelleted by centrifugation, supernatant removed, and the cells were suspended by vibrating the plate.
Cell were permeabilized by adding 150 μl cold absolute methanol, followed by incubation at 4° C. for 15 minutes. Permeabilized cells were centrifuged, supernatant removed, and cells were washed three times with cold (4° C.) PBS containing 4% FBS. Following the final wash, cells were centrifuged, the supernatant was removed, and cells were re-suspended in an antibody cocktail (total volume 20 μl) appropriate for that experiment.

HL-60 cells = assay: Mitochondrial membrane potential (MMP) with JC-9, red and green fluorescence, flow cytometry; type: cell-based, human
Procedure: as §1, with “step. Plates were returned to the tissue culture incubator (5% CO2 at 37° C.) for an additional 15 min (plate 1a) or 30 min (plate 1b), followed by immediate analysis using the […]-CYAN™.” for “step.”
as §2, with “Each well of the 384 wellplate was sampled with a 6 second sip time, plus 1 second delay between wells, resulting in a total read time for each plate of approximately 45 minutes. Data was” for “Data was”
Measurements identical to those described in Example 2 above were made using a second combination of dyes:
(2) JC-9 to measure mitochondrial membrane potential (MMP); and
The measurement of mitochondrial membrane potential (MMP) with JC-9 was performed with two independent fluorescence channels (green and red fluorescence signals), as changes in MMP cause aggregation of the dye, with different fluorescence emission by the aggregated versus non-aggregated dye molecules. […] At higher valinomycin concentrations, red fluorescence […]. A unique aspect of this assay is that it correlates changes in MMP (JC-9) and cell death (SYTOXRED™) with the phases of the cell cycle (G1, S, and G2M).

[2] = 33 μM, population with altered morphology, compared to cells with normal morphology
[3] = 33 μM, population with normal morphology
[4] = HL-60 cells, increasing concentration
[5] = HL-60 cells, concentration series

## N#CC(C#N)=NNc1ccc(OC(F)(F)F)cc1 [FCCP, carbonyl cyanide-4-(trifluoromethoxy)phenylhydrazone]
HL-60 cell line; [2]
  CALCEIN: increased
  GSH: reduced
  ROS: increased
  SYTOXRED: higher
HL-60 cell line; [3]
  CALCEIN AM level: normal
  GSH level: normal
  ROS (indicator of mitochondrial stress): increased
  nuclear and cytoplasmic membranes (SYTOX Red uptake): intact
HL-60 cell line; 33 μM, second distinct population (light blue)
  cell morphology: altered

## CS(=O)(=O)N1CCN(Cc2cc3nc(-c4cccc5[nH]ncc45)nc(N4CCOCC4)c3s2)CC1 [GDC0941]
[1]
  kinetics of ERK phosphorylation: delayed

## Cc1ccc(NC(=O)c2ccc(CN3CCN(C)CC3)cc2)cc1Nc1nccc(-c2cccnc2)n1 [GLEEVEC™]
K562 cells
  change in the cell cycle, as measured by DNA content: no concomitant change

## CNCCC(Oc1ccc(C(F)(F)F)cc1)c1ccccc1 (stereo not shown) [fluoxetine]
HL-60 cell line; 100 μM
  cells that have lost "normal morphology": Approximately 30%
HL-60 cell line; 100 μM, affected cells
  GSH (MBBR): reduced
  ROS (MITOSOX RED): increased

## CC(=O)[C@]1(O)Cc2c(O)c3c(c(O)c2[C@@H](O[C@H]2C[C@H](N)[C@H](O)[C@H](C)O2)C1)C(=O)c1ccccc1C3=O [idarubicin]
HL-60 cells; HL60 cells, 1.23 μM
  JC-9 red fluorescence versus untreated control cells: significantly higher
HL-60 cells; HL60 cells, concentration series
  concentration at which red fluorescence of JC-9 begins to increase significantly: 1.23 µM
HL-60 cells; [4]
  JC-9 green fluorescence: does not increase

## CO/C(=C/C(N)=O)[C@H](C)[C@H](/C=C/c1csc(-c2csc([C@@H](C)/C=C/C=C/C(C)C)n2)n1)OC [myxothiazol]
HL-60 cell line; 100 μM, affected cells
  CALCEIN AM (cytoplasmic membrane permeability): decrease
  GSH (MBBR): decrease
  ROS (MITOSOX RED): increase
  SYTOXRED (cytoplasmic and nuclear membrane permeability, viability): increase
  cell morphology (light scatter): significant change
HL-60 cell line; 100 μM, affected cells, listed as myxothiozol
  SYTOXRED (cytoplasmic and nuclear membrane permeability, viability): perturbs

## CC(C)[C@@H]1NC(=O)[C@H](C)OC(=O)[C@@H](C(C)C)NC(=O)[C@@H](C(C)C)OC(=O)[C@H](C(C)C)NC(=O)[C@H](C)OC(=O)[C@@H](C(C)C)NC(=O)[C@@H](C(C)C)OC(=O)[C@H](C(C)C)NC(=O)[C@H](C)OC(=O)[C@@H](C(C)C)NC(=O)[C@@H](C(C)C)OC1=O [valinomycin]
HL-60 cells; [5]
  concentration at which red and green JC-9 fluorescence peak: ~0.045 µM
  concentration of peak green JC-9 fluorescence: ~0.05 µM
HL-60 cells; [4]
  JC-9 green fluorescence: significantly higher; also recorded: initially increase
  JC-9 red fluorescence: significantly higher; also recorded: initially increase
HL-60 cells; at higher concentrations (above green peak)
  JC-9 red/green fluorescence ratio: increasing
